Laboratory results: US20220047596A1, “COMBINATION OF PARP INHIBITOR AND BRD4 INHIBITOR FOR THE TREATMENT OF CANCER” (Board of Regents, The University of Texas System, priority 2018, published 2022)

How the values were obtained:
U2OS DR-GFP cells = assay: U2OS DR-GFP HR reporter assay; assay type: cell-based, Human; conditions: 100 nM for 24 hr, then I-Sce1 for 48 hr
Source text: HR Repair Analysis: U2OS DR-GFP cells contain a single copy of the HR repair reporter substrate DR-GFP, which contains two nonfunctional GFP open reading frames, including one GFP-coding sequence that is interrupted by a recognition site for the I-SceI endonuclease. Expression of I-SceI leads to formation of a DSB in the I-SceI GFP allele, which can be repaired by HR using the nearby GFP sequence lacking the N- and C-termini, thereby producing functional GFP that can be detected by flow cytometry. […] Then, cells were transfected with a plasmid expressing I-SceI (pCBASce) for 48 hr. Cells transfected with an empty vector were used as a negative control. GFP-expressing plasmid (pEGFP-C1) was used for transfection efficiency control. Flow cytometry analysis was performed to detect GFP^+ cells using FACScalibur with CellQuest software (Becton Dickinson). The repair efficiency was scored as the percentage of GFP^+ cells.

[1] = Toxicity analysis in the T127 model (blood counts, serum chemistry); assay type: in vivo, mice; conditions: compared with the vehicle group
Source text: Mice were sacrificed when tumor diameter reached maximum limits of 2.5 cmat Day 22 for tissue harvest and blood collection 3 hr after the final treatment.

HOC1 cells [2] = assay: RPA and RAD51 foci immunofluorescence; assay type: cell-based, Human; conditions: for RAD51 nuclear foci: after PARPi or IR, compared with vehicle
Experimental: Immunofluorescence Staining and Microscopy: Briefly, cells were washed with PBS and fixed with 4% paraformaldehyde for 5 min, followed by permeabilization with 0.5% NP-40 and 1% Triton X-100 for 10 min Cells were then blocked with 5% FBS for 30 min and incubated with primary antibody (anti-RAD51, PC130, 1:100; anti-g-H2AX (Ser139), clone JBW301, 1:1000 from Millipore Corp; anti-RPA32, ab2175, 1:500 from Abcam) for 2 hr, followed by secondary antibody incubation for 1 hr at room temperature. Slides were sealed in mounting medium containing DAPI (Vector Laboratories, H1200) for further image acquisition. TE-2000 imaging acquisition system (Nikon) equipped with a 60× objective lens was used to capture images. Stained was quantified by ImageJ.

HRD gene signature = HRD gene signature score applied to public transcriptional profiling data; conditions: human or murine tumors; GEO datasets
Source text: Microarray Analysis and IPA Analysis: Gene expression datasets of GSE29799 (Zuber et al., 2011), GSE66048 (Ambrosini et al., 2015), GSE44929 (Love′ n et al., 2013), GSE85840 (Rhyasen et al., 2016), GSE31365 (Delmore et al., 2011), and GSE43392 (Puissant et al., 2013) were downloaded from Gene Expression Omnibus (GEO) (https://www.ncbi.nlm.nih.gov/geo). Raw data were subjected to intensity normalization using affy package in R (Bioconductor), followed by log transformation and quantile normalization. Normalized data were checked for quality and determined to be free of outliers by analysis using box plots, density plots and MA plots. Differential expression genes after BRD4 inhibition were calculated using a linear model provided by the limma package in R based on the cutoffs: 2 for absolute fold change, 0.05 for p value.
HRD Score Acquisition from HRD Signature HRD signature consisting of 230 differentially expressed genes was obtained as previously described (Peng et al., 2014). Normalized gene expression data (GSE29799, GSE66048, GSE44929, GSE85840, GSE31365, and GSE43392) after BRD4 inhibition were subjected to unsupervised clustering with these 230 genes. HRD scores were determined by calculating the Pearson's correlations between median centered gene expression levels for HRD signature and gene expression levels for a given sample (Peng et al., 2014).

OVCAR3 xenografts = assay: OVCAR3 xenograft; assay type: in vivo, mice; conditions: Olaparib 100 mg/kg, AZD5153 2.5 mg/kg, oral gavage, daily, 35 days
Experimental: 6 weeks old female C.B-17 scid mice were purchased from Charles River Laboratories and used for OVCAR3 xenografts. Tumor cells were injected into female mice of approximately 8-10 weeks of age. All mice were housed under pathogen-free conditions at AstraZeneca AAALAC accredited facility. All animal experiments were conducted in compliance with the National Institute of Health guidelines for animal research and approved by the Institutional Animal Care and Use Committee of AstraZeneca.
OVCAR3 Xenograft: […] OVCAR3 cells were injected subcutaneously in the right flank of mice. Mice were randomized based on tumor volumes using stratified sampling and enrolled into control and treatment groups. Dosing began when mean tumor size reached approximately 200 mm^3 and continued for 35 days.

PARP = conditions: cited from earlier work
cancer cell lines = assay: Viability measurement (PrestoBlue, 96 hr) with CalcuSyn combination index; assay type: cell-based, Human; design: synergy with JQ1 at fixed PARPi concentration: dose or concentration left out as unconfirmed; conditions: for synergy with JQ1 at fixed PARPi concentration: 96 hr, HOC1 cells; for synergistic effects in combinations with BRD4i (JQ1): similar combination indices indicative of synergy
Experimental: (§1) Viability Measurements: Five thousand cells were seeded into sterile 96-well plates and treated with indicated drug combinations for 96 hr. DMSO was used as a vehicle. PrestoBlue® Cell Viability Reagent (Thermo Fisher Scientific) was used to assess cell viability. Background values from empty wells were subtracted and data normalized to vehicle-treated control. Synergistic effects between both compounds were calculated using the Chou-Talalay equation in CalcuSyn software, which takes into account both potency (IC50) and shape of the dose-effect curve. […], and CI>1 indicates antagonism.

HOC1 cells [3] = assay: Alkaline comet assay; assay type: cell-based, Human; conditions: 200 nM each, 48 hr
Experimental: Alkaline Single-Cell Agarose Gel Electrophoresis (Comet) Assays: Alkaline comet assays were performed with Comet Assay Kit (Trevigen) using manufacturer's instructions. Briefly, cell suspensions were embedded in LM (low melting) Agarose and deposited on comet slides. Slides were incubated for 1 hr at 4° C. in lysis solution, followed by immersing slides in freshly prepared alkaline unwinding solution (pH >13) for 20 min at room temperature in the dark. Electrophoresis was carried out for 30 min at 21 V in electrophoresis solution (pH >13). Slides were then stained with SYBR™ Gold (Thermo Fisher Scientific). Tail DNA content was analyzed with Comet score 1.5 software. DNA strand breakage was expressed as “comet tail moment”. The tail moment was measured for a minimum of 50 cells per sample, and average damage from 3 independent experiments was calculated.

DT40 cells = assay: Viability dose response in DT40 WT and PARP1-/- cells; assay type: cell-based, Chicken
Experimental: as §1

[4] = test system: CtIP promoter and enhancer; assay: ChIP-qPCR at CtIP promoter and enhancer; assay type: cell-based, Human; conditions: HOC1; 200 nM, 24 hr
Experimental: Chromatin Immunoprecipitation (ChIP-qPCR): ChIP assays were performed with EZ-Magna ChIP™ A/G Chromatin Immunoprecipitation Kit (Millipore Corp) as described in manufacturer's instructions. Briefly, cells were crosslinked with 1% formaldehyde. After cell lysis, isolated nuclei were subjected to sonication for chromatin fragmentation. Sheared chromatin was diluted in diluted buffer, and divided into aliquots for immunoprecipitation. Anti-BRD4 antibody (1:50, #13440S, Cell Signaling), anti-H3K27ac antibody (1:100, ab4729, Abcam), anti-H3K4M1 antibody (1:200, ab8895, Abcam), anti-Pol II antibody (1:100, sc-47701, Santa Cruz) or normal Rabbit IgG control (1:200, #2729, Cell Signaling) were added to chromatin samples, followed by overnight incubation at 4° C., with rotation. Antibody-chromatin complexes were captured using magnetic protein A/G beads. Purified DNAs were subjected to quantitative PCR (qPCR). All primers are list in Table 2.

CtIP = assay: Western blot of CtIP and DNA damage response proteins; assay type: cell-based, Human
Experimental: Protein lysates were analyzed by RPPA in MDACC CCSG (The Cancer Center Support Grant) supported RPPA Core. Antibodies and approaches are described at the RPPA website (https://www.mdanderson.org/research/research-resources/core-facilities/functional-proteomics-rppa-core.html). For visualization, 2D and 3D, concentrations and time were averaged for each cell line. Heat map represents “rank-ordered” changes induced by BRD4i treatment, calculated by summing median-centered protein amount normalized to DMSO. Western Blot: To prepare whole cell lysates, cells were lysed with RIPA buffer (Thermo Fisher Scientific) supplemented with Halt™ Protease and Phosphatase Inhibitor (EDTA-free) Cocktail (Thermo Fisher Scientific). After thorough mixing and incubation at 4° C. for 10 min, lysates were centrifuged at 15,000 g at 4° C. for 15 min, and supernatants were collected. To prepare subcellular fraction of nuclear soluble and chromatin-bound fraction, cells were treated with indicated drugs, and then cells were collected. For fractionation, a Subcellular Protein Fractionation kit (Thermo Fisher Scientific) was used following the manufacturer's instructions. The protein content of the cell was determined, and the cellular lysates were separated by 10% SDS-PAGE, and electro-transferred onto polyvinylidene difluoride (PVDF) membranes. After being blocked with 5% non-fat milk in TBST, the membranes were incubated with primary antibodies at 4° C. overnight, followed by 1:2000 horseradish peroxidase (HRP)-conjugated secondary antibody (Abcam) for 1 hr. Bands were visualized using a Pierce™ ECL Western Blotting Substrate (Thermo Fisher Scientific). Primary antibodies used are listed in Key Resources Table.

[5] = test system: OVCAR8 and WU-BC3 PDX tumors; assay: IHC of OVCAR8 and WU-BC3 PDX tumors at study termination; design: species or system mice; conditions: mouse, in vivo
Experimental: Immunohistochemical Staining (IHC) Tissues were fixed in 10% formalin overnight and embedded in paraffin. […] paraffin embedded sections were first deparaffinized in xylene. IHC were carried out with EnVision Detection Systems HRP. Rabbit/Mouse (DAB+) kit (Agilent) following manufacturer's instructions. Endogenous peroxidase was blocked by incubation with 0.3% hydrogen peroxide for 15 min. Antigen retrieval was performed by boiling the slides in citrate buffer (10 mM, pH 6.0) in a water bath for […]. Slides were rinsed in PBS Tween 0.05% and blocked for […] with 5% bovine serum albumin (BSA). Slide were incubated overnight at 4° C. with primary antibodies (anti-BRD4,
#13440S, 1:200; anti-CtIP, #9201S, 1:200 from Cell Signaling Technology; anti-RAD51, PC130, 1:100; anti-g-H2AX (Ser139), clone JBW301, 1:500 from Millipore Corp; and anti-pRPA32(S4/8), A300-245A, 1:1000 from Bethyl Laboratories), followed by 1 hr with Labelled Polymer-HRP at room temperature. Negative controls were treated identically, but without primary antibody. Subsequently, slides were incubated with DAB+ Chromogen. Slides were counterstained with hematoxylin. After mounting, slides were observed under microscope and photographed.
OVCAR8 Xenografts: 3×10^6 OVCAR8 cells were injected s.c. into mouse flanks in a 1:1 mix of PBS and Matrigel. […] Tumor volumes were calculated using […]. […]

HOC1 cells [6] = assay: Detection of ssDNA by BrdU immunofluorescence under non-denaturing conditions; assay type: cell-based, Human; conditions: 4 hr after 10 Gy irradiation
Experimental: Detection of ssDNA by Immunofluorescence: Cells were grown in […] BrdU for two doubling times before irradiation. […] Cells were placed on ice 10 min before irradiation and kept on ice during the irradiation with 10 Gy. […] BrdU was stained (anti-BrdU, ab8152, 1:100 from Abcam) in non-denaturing conditions which enables detection of BrdU incorporated in ssDNA. TE-2000 imaging acquisition system (Nikon) equipped with a 60× objective lens was used to capture images. Stained was quantified by ImageJ.

COc1nnc2ccc(N3CCC(c4ccc(OCCN5CCN(C)C(=O)[C@H]5C)cc4)CC3)nn12 [AZD5153]
HR repair (percentage of GFP+ cells) (U2OS DR-GFP cells): attenuated HR repair | numbers of white blood cells [1]: slight decrease but remained in the normal range | RAD51 nuclear foci (HOC1 cells [2]): decreased RAD51 nuclear foci | HRD score (HRD gene signature): increased HRD score | tumor growth inhibitions (TGI) (OVCAR3 xenografts): 83%

NC(=O)c1cccc2cn(-c3ccc([C@@H]4CCCNC4)cc3)nc12 [Niraparib]
PARP trapping activity (PARP): intermediate in activity

O=C(c1cc(Cc2n[nH]c(=O)c3ccccc23)ccc1F)N1CCN(C(=O)C2CC2)CC1 [Olaparib]
synergy with JQ1 at fixed PARPi concentration (cancer cell lines): synergized with JQ1 | synergistic effects in combinations with BRD4i (JQ1) (cancer cell lines): synergistic effects were maintained | tumor growth inhibitions (TGI) (OVCAR3 xenografts): 35%

CNCc1ccc(-c2[nH]c3cc(F)cc4c3c2CCNC4=O)cc1 [Rucaparib]
PARP trapping activity (PARP): intermediate in activity

Cn1ncnc1[C@H]1c2n[nH]c(=O)c3cc(F)cc(c23)N[C@@H]1c1ccc(F)cc1 [BMN673]
synergy with JQ1 at fixed PARPi concentration (cancer cell lines): synergized with JQ1 | sensitivity of cell lines to PARPi alone (cancer cell lines; OAW42, A2780CP, A2780, UWB1.289, OC316, ARK1, HCC1187, BT20, MDA-MB-436): highly sensitive | PARP trapping activity (PARP): most active | DNA damage (comet assay) (HOC1 cells [3]): modestly induced DNA damage | sensitivity of PARP1-/- DT40 (DT40 cells): resistant

C[C@]1(c2nc3c(C(N)=O)cccc3[nH]2)CCCN1 [ABT888]
synergy with JQ1 at fixed PARPi concentration (cancer cell lines): synergized with JQ1 | synergistic effects in combinations with BRD4i (JQ1) (cancer cell lines): synergistic effects were maintained | PARP trapping activity (PARP): weakest | concentration required for PARP trapping (PARP): 50 mM

Cc1sc2c(c1C)C(c1ccc(Cl)cc1)=N[C@@H](CC(=O)OC(C)(C)C)c1nnc(C)n1-2 [JQ1]
resensitization of PARPi-resistant cells to PARPi (cancer cell lines; A2780CP_R, OAW42_R and OC316_R): resensitized | PARPi resistance mediated by 53BP1 knockdown (cancer cell lines; BRCA1 knockdown MCF10A, BRCA1 mutant UWB1.289 and COV362 cells): reversed resistance | HR repair (percentage of GFP+ cells) (U2OS DR-GFP cells): attenuated HR repair | DNA damage (comet assay) (HOC1 cells [3]): modestly induced DNA damage | BRD4 association with the CtIP promoter and enhancer [4]: decreased | H3K27Ac, H3K4Me1 at the CtIP promoter and enhancer [4]: reduced | association of RNA Pol-II with the CtIP promoter and enhancer [4]: decreased association | RAD51 nuclear foci (HOC1 cells [2]): decreased RAD51 nuclear foci | RPA focus formation (HOC1 cells [2]; in response to PARPi or IR): severely impaired | HRD score (HRD gene signature): increased HRD score | expression of other MRN complex proteins (CtIP; 200 nM, 48 hr, HeyA8, OVCAR8, HOC7 cells): did not markedly alter | CtIP and pRPA32 (S4/8) protein (CtIP; HOC1 and HeyA8 cells, dose and time course): decreased CtIP and phosphorylated RPA32 | RAD51 levels (CtIP; HeyA8 and HOC7, 200 nM, 48 hr): modestly decreased | BRCA1 levels (CtIP; MCAS, 200 nM, 48 hr): modestly decreased | CtIP protein (CtIP; all lines assessed, 200 nM, 48 hr): consistently decreased | CtIP and pRPA32 (S4/8) (IHC) [5]: decreased | gH2AX (IHC) [5]: increased | formation of ssDNA (HOC1 cells [6]): significantly reduced
